The values below come from PubChem BioAssay (NCI).

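These data come from cells grown in 96-well plates and exposed to compound for 48 hours at five concentrations. GI50 is the concentration that inhibits growth by half. Definition used: TGI = concentration required for complete inhibition of growth.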

Among the test systems are HOP-92 NSCLC; HOP-62 NSCLC; SR leukemia; MALME-3M melanoma; MDA-MB-231 breast; SF-295 CNS; TK-10 renal; SK-MEL-5 melanoma; SN12C renal; SNB-19 CNS.
Common to all, as to assay: growth of human tumour cells (NCI), 48 h

In the case of `CNCc1ccc(-c2[nH]c3cc(F)cc4c3c2CCNC4=O)cc1`, the GI50 with HOP-92 NSCLC is 17.9 µM; in the experiment with HOP-62 NSCLC, 14.9 µM; with SR leukemia it was 9.51 µM; in the experiment with MALME-3M melanoma it was 17 µM; in the experiment with MDA-MB-231 breast, 11.1 µM; in the experiment on SF-295 CNS it was 18.8 µM. In addition, the GI50 with TK-10 renal is 29.2 µM; in the experiment with SK-MEL-5 melanoma it was 14.7 µM; with SN12C renal it was 16.5 µM; with SNB-19 CNS, 17.3 µM. Moreover, the TGI was > 69.5 µM in the experiment with HOP-92 NSCLC; 43.4 µM in the experiment on HOP-62 NSCLC; 44 µM in the experiment with SR leukemia; 36.1 µM in the experiment with MALME-3M melanoma; 33 µM in the experiment with MDA-MB-231 breast; 45.7 µM in the experiment with SF-295 CNS. In addition, the TGI in the experiment with TK-10 renal came out at 72.7 µM; in the experiment with SK-MEL-5 melanoma, 28.1 µM; in the experiment with SN12C renal, 48 µM; with SNB-19 CNS it was 57 µM.

Regarding `C[C@]12CCC3=NCCN3C1=CC[C@@H]1[C@@H]2CC[C@@]2(C)[C@H]1CC[C@]2(C)O`, the TGI was > 100 µM in the experiment on HOP-92 NSCLC; > 100 µM with HOP-62 NSCLC; > 100 µM with SR leukemia; 53.5 µM in the experiment on MALME-3M melanoma; > 100 µM in the experiment with MDA-MB-231 breast; 42.6 µM with SF-295 CNS. Moreover, the TGI in the experiment with TK-10 renal is > 100 µM; in the experiment on SK-MEL-5 melanoma it was 35.6 µM; with SN12C renal it was > 100 µM; in the experiment on SNB-19 CNS, > 100 µM.

On to `C#CC#CC#CC#CC#CC#CC#CC#CC[C@@H]1OC[C@@H](COC(=O)O[C@@H](C(=O)O[C@H]2C[C@@]3(O)[C@@H](OC(=O)c4ccccc4)[C@@H]4[C@]5(OC(C)=O)CO[C@@H]5C[C@H](O)[C@@]4(C)C(=O)[C@H](OC(C)=O)C(=C2C)C3(C)C)[C@@H](NC(=O)c2ccccc2)c2ccccc2)O1`, for which the TGI with HOP-92 NSCLC is > 33.3 µM; with HOP-62 NSCLC, > 33.3 µM; in the experiment on SR leukemia it was > 33.3 µM; in the experiment on MALME-3M melanoma it was > 33.3 µM; in the experiment on MDA-MB-231 breast, > 33.3 µM; in the experiment on SF-295 CNS, 2.41 µM. The TGI with TK-10 renal was > 33.3 µM; with SK-MEL-5 melanoma it was > 9.15 µM; in the experiment on SN12C renal, > 33.3 µM; with SNB-19 CNS it was > 33.3 µM. In addition, the GI50 in the experiment with HOP-62 NSCLC is 1.13 µM; in the experiment on SR leukemia, 0.16 µM; in the experiment on MALME-3M melanoma it was 0.721 µM; in the experiment with MDA-MB-231 breast it was 0.65 µM; in the experiment with SF-295 CNS, 0.579 µM; with TK-10 renal it was 2.25 µM. The values for the GI50 in the experiment on SK-MEL-5 melanoma, in the experiment on SN12C renal and in the experiment on SNB-19 CNS were 0.83 µM, 1.03 µM and 1.08 µM, respectively.

As to `Cc1ccc(S(=O)(=O)N2CCC(C(=O)O)(c3ccccc3)CC2)cc1`, the TGI in the experiment with HOP-92 NSCLC, with HOP-62 NSCLC, in the experiment with SR leukemia, in the experiment on MALME-3M melanoma, in the experiment on MDA-MB-231 breast and in the experiment on SF-295 CNS was > 100 µM each time. The TGI in the experiment with TK-10 renal, with SK-MEL-5 melanoma, in the experiment on SN12C renal and in the experiment on SNB-19 CNS was > 100 µM each time.

Turning to `C=C(Cn1c2ccccc2c(=O)c2ccccc21)c1ccc(C(=O)Nc2ccccc2N)cc1`, the GI50 in the experiment on HOP-92 NSCLC was 5.87 µM; in the experiment on HOP-62 NSCLC it was > 27.3 µM; with SR leukemia it was 0.605 µM; with MALME-3M melanoma, 6.45 µM; with MDA-MB-231 breast it was 3.72 µM; in the experiment on SF-295 CNS, > 81.5 µM. Further, the GI50 in the experiment with TK-10 renal is > 28.9 µM; with SK-MEL-5 melanoma, 4.58 µM; with SN12C renal, > 100 µM. Further, the TGI was > 100 µM in the experiment with HOP-92 NSCLC; > 100 µM in the experiment with HOP-62 NSCLC; 2.25 µM with SR leukemia; > 100 µM in the experiment with MALME-3M melanoma; 56 µM in the experiment on MDA-MB-231 breast; > 100 µM in the experiment with SF-295 CNS. For the same molecule, the TGI with TK-10 renal, with SK-MEL-5 melanoma, with SN12C renal and with SNB-19 CNS was > 100 µM each time.

`CCN1CCN(c2nc(NNC(=O)c3ccccc3)nc(N3CCN(C(c4ccccc4)c4ccccc4)CC3)n2)CC1`: the GI50 in the experiment with HOP-92 NSCLC was 1.39 µM; in the experiment on HOP-62 NSCLC it was 12.7 µM; with SR leukemia, 1.78 µM; in the experiment with MALME-3M melanoma it was 1.7 µM; in the experiment on MDA-MB-231 breast, 2.7 µM; with SF-295 CNS it was 4.58 µM. In addition, the GI50 was 3.31 µM in the experiment on TK-10 renal, 1.73 µM in the experiment with SK-MEL-5 melanoma, 2.89 µM in the experiment on SN12C renal and 4.28 µM in the experiment with SNB-19 CNS. Besides, the TGI came out at 3.7 µM in the experiment with HOP-92 NSCLC; 31.8 µM in the experiment on HOP-62 NSCLC; 4.69 µM with SR leukemia; 3.48 µM in the experiment with MALME-3M melanoma; 7.55 µM in the experiment on MDA-MB-231 breast; 16.3 µM in the experiment on SF-295 CNS. Also, the TGI came out at 11.4 µM with TK-10 renal, 3.14 µM in the experiment on SK-MEL-5 melanoma, 8.97 µM in the experiment on SN12C renal and 17.8 µM with SNB-19 CNS.

Turning to `COc1ccc(-c2cc(-c3ccccc3)nc(NCCNc3ccnc4cc(Cl)ccc34)n2)cc1`, the GI50 with HOP-92 NSCLC is 1.17 µM; in the experiment with HOP-62 NSCLC, 1.87 µM; in the experiment on SR leukemia, 0.435 µM; with MALME-3M melanoma, 1.7 µM; with MDA-MB-231 breast, 1.81 µM; in the experiment with SF-295 CNS, 1.8 µM. Moreover, the GI50 was 1.82 µM with TK-10 renal, 1.79 µM in the experiment with SK-MEL-5 melanoma, 1.61 µM in the experiment with SN12C renal and 1.77 µM in the experiment with SNB-19 CNS. Besides, the TGI was 2.57 µM with HOP-92 NSCLC; 3.7 µM with HOP-62 NSCLC; > 100 µM in the experiment with SR leukemia; 3.42 µM with MALME-3M melanoma; 3.49 µM in the experiment with MDA-MB-231 breast; 3.49 µM in the experiment on SF-295 CNS. Further, the TGI with TK-10 renal amounted to 3.44 µM; in the experiment on SK-MEL-5 melanoma, 3.3 µM; in the experiment on SN12C renal, 3.3 µM; in the experiment on SNB-19 CNS, 3.68 µM.
